Results taken from US7183320B2, “Benzoylsulfonamides and sulfonylbenzamidines for use as antitumour agents” (Eli Lilly and Company, priority 2002, dated 2007).

Columns and labels:
Format in all cases: in vivo
[1] = test system: bFGF-induced neoangiogenesis; assay: Rat corneal micropocket assay, bFGF disks; conditions: 160 mg/kg orally by gavage once per day, days 1 through 10; Fisher 344 female rats
Procedure: Rat Corneal Micropocket Assay
Fisher 344 female rats (145–155 grams; Taconic, Inc., Germantown, N.Y.) were anesthesized with acepromazine (2.5 mg/kg, ip) 20 minutes prior to initiation of 2–3% isoflurane/oxygen inhalation. The body temperature was maintained with a circulating hot water pad. The surgery was performed using an ophthalmic operating microscope (OMS.75 Operating Microscope, TopCon Corporation, Japan). A scalpel blade (#15) was used to make a vertical half-thickness linear corneal incision just lateral to the center of the eye. […] A pocket was formed in the cornea using blunt dissection with corneal scissors (Roboz, Rockville, Md.). Nitrocellulose filters ([…], Millipore, Bedford, Mass.) were cut into small disks using a 20 gauge needle punch. The disks were soaked in 2 μl of human VEGF solution ([…]; R&D Systems) or human basic fibroblast growth factor (0.20 μg/μl; R&D Systems) for 10 minutes on ice. Using forceps, the disks impregnated with the angiogenic factor (VEGF or bFGF) were inserted into the corneal pocket so that the disk is firmly covered with corneal epithelium. […] The images were analyzed by converting the area of interest to high contrast black and white reversed image and counting the bright pixels as a determination of the vascular area. […]

[2] = test system: MURINE MAMMARY ADENOCARCINOMA-16/C; assay: Early stage murine mammary adenocarcinoma-16/C (Table III); conditions: C3H female mice
Excerpt: (§1) Conventional Murine Tumor and Human Tumor Xenouraft Assays
(§2) Briefly, the murine tumor or human xenograph was implanted subcutaneously using either 12-gauge trocar implants or counted number of cells. The location for the trocar insertion is midway between the axillary and inguinal region along the side of the mouse. The trocar is slipped approximately ¾ of an inch subcutaneously up toward the axilla before discharging the tumor fragment, and pinching the skin as the trocar is removed., Alternatively, human tumor cells prepared from a […] of donor tumors (5×10^6 cells) were implanted subcutaneously in a hind-leg of a male or female nude mouse (Charles River). Either a test compound in vehicle or vehicle alone was administered by intravenous bolus injection (iv), intraperitoneal injection (ip), or oral gavage (po). Each treatment group, as well as a group of untreated control animals, consisted of five animals per group in each experiment. […] Body weights were taken as a general measure of toxicity. The subcutaneous tumor data were analyzed by determining the median tumor weight for each treatment group over the course of the experiment and calculating the tumor growth delay as the difference in days for the treatment versus the control tumors to reach a volume of either 500 or 1000 mm^3.
(§3) The parameters measured in each experiment are summarized in the following paragraphs. • Tumor Weight(mg)=(a×b^2)/2 where a=tumor length (mm) and b=tumor width (mm). • Tumor Growth Delay=T−C where T is the median time (days) required for the treatment group tumors to reach a predetermined size, and C is the median time (days) for the control group tumors to reach the same size. Tumor-free survivors are excluded from this calculation, and are tabulated separately (Tumor Free).
(§4) The median tumor weight of each group is determined (including zeros). The T/C value in percent is an indication of antitumor effectiveness.

[3] = test system: MURINE SQUAMOUS LUNG LC-12; assay: Early stage murine squamous lung LC-12 (Table VI); conditions: Balb/C female mice
Excerpt: as §1, §2, §3, §4

[4] = test system: MURINE COLON CARCINOMA-26; assay: Early stage murine colon carcinoma-26 (Table X); conditions: Balb/C female mice
Excerpt: as §1, §2, §3, §4

[5] = total dose 560 mg/kg by IV infusion over 3 hours on day 3
[6] = total dose 560 mg/kg: 280 mg/kg by IV infusion on days 3 and 7
[7] = total dose 680 mg/kg IV: 80 mg/kg/injection days 3–6, 120 mg/kg/injection days 7–9
[8] = total dose 640 mg/kg: 160 mg/kg/injection IV on days 4, 6, 8, and 10
[9] = total dose 1391 mg/kg: 107 mg/kg/injection IV every second day, days 4 to 28
[10] = total dose 1305 mg/kg: 145 mg/kg/injection IV on days 1, 3, 5, 7, 9, 13, 15, 17, and 19
[11] = total dose 1600 mg/kg: 100 mg/kg/injection IV BID on days 1, 3, 5, 7, 13, 15, 17, and 21
[12] = total dose 1740 mg/kg: 145 mg/kg/injection IV on days 1, 2, 3, 7, 8, 13, 14, 16, 18, and 20–22

O=C(NS(=O)(=O)c1ccccc1)c1ccc(Cl)cc1Cl [Example 110, N-[2,4-dichlorobenzoyl]phenylsulfonamide]
inhibition of bFGF-induced neoangiogenesis [1]: not an effective inhibitor | % BODY WT LOSS AT NADIR [2, 5]: DEATH | ACTIVITY RATING [2, 5]: DEATH | DRUG DEATHS [2, 5]: 5/5 | GROWTH DELAY (DAYS) [2, 5]: DEATH | TUMOR FREE AT DAY 14 [2, 5]: 0/5 | % BODY WT LOSS AT NADIR [2, 6]: +10.9% | % T/C MASS [2, 6]: 37% | ACTIVITY RATING [2, 6]: + (0.7–1.2) | DRUG DEATHS [2, 6]: 0/4 | GROWTH DELAY [2, 6]: 2.0 days | LOG KILL [2, 6]: 0.6 | TUMOR FREE AT DAY 14 [2, 6]: 0/4 | % BODY WT LOSS AT NADIR [2, 7]: +7.6% | % T/C MASS [2, 7]: 39% | ACTIVITY RATING [2, 7]: + (0.7–1.2) | DRUG DEATHS [2, 7]: 0/5 | GROWTH DELAY [2, 7]: 2.5 days | LOG KILL [2, 7]: 0.75 | TUMOR FREE AT DAY 14 [2, 7]: 0/5 | % BODY WT LOSS AT NADIR [3, 8]: 0% | % T/C MASS [3, 8]: 14% | ACTIVITY RATING [3, 8]: ++ (1.3–1.9) | DRUG DEATHS [3, 8]: 0/4 | GROWTH DELAY [3, 8]: 12.5 days | LOG KILL [3, 8]: 1.7 | TUMOR FREE AT DAY 174 [3, 8]: 0/4 | % BODY WT LOSS AT NADIR [3, 9]: +1.6% | % T/C MASS [3, 9]: 20% | ACTIVITY RATING [3, 9]: +++ (2.0–2.8) | DRUG DEATHS [3, 9]: 0/5 | GROWTH DELAY [3, 9]: 15.5 days | LOG KILL [3, 9]: 2.1 | TUMOR FREE AT DAY 174 [3, 9]: 0/5 | % BODY WT LOSS AT NADIR [4, 10]: +15% | % T/C MASS [4, 10]: 28% | ACTIVITY RATING [4, 10]: + (0.7–1.2) | DRUG DEATHS [4, 10]: 0/5 | GROWTH DELAY [4, 10]: 6 days | LOG KILL [4, 10]: 0.9 | TUMOR FREE AT DAY 31 [4, 10]: 0/5 | % BODY WT LOSS AT NADIR [4, 11]: +15% | % T/C MASS [4, 11]: 34% | ACTIVITY RATING [4, 11]: +++ (2.0–2.8) | DRUG DEATHS [4, 11]: 0/5 | GROWTH DELAY [4, 11]: 15 days | LOG KILL [4, 11]: 2.2 | TUMOR FREE AT DAY 31 [4, 11]: 0/5 | % BODY WT LOSS AT NADIR [4, 12]: +17% | % T/C MASS [4, 12]: 34% | ACTIVITY RATING [4, 12]: +++ (2.0–2.8) | DRUG DEATHS [4, 12]: 0/5 | GROWTH DELAY [4, 12]: 14 days | LOG KILL [4, 12]: 2.1 | TUMOR FREE AT DAY 31 [4, 12]: 0/5
